Experimental data published in US11013779B2, “Small molecule therapeutic inhibitors against picornaviruses, caliciviruses, and coronaviruses” (Kansas State University Research Foundation, priority 2016, dated 2021).

Assays:
[1] = system: α-chymotrypsin; assay type: biochemical, human
[2] = molecular target: plasmin (Homo sapiens, UniProt P00747); assay type: biochemical
[3] = molecular target: trypsin (Homo sapiens, UniProt P07477); assay type: biochemical
[4] = molecular target: Factor Xa (Homo sapiens, UniProt P00742); assay type: biochemical
[5] = molecular target: thrombin (Homo sapiens, UniProt P00734); assay type: biochemical

Sequence of plasmin (P00747 581-810 limits assumed): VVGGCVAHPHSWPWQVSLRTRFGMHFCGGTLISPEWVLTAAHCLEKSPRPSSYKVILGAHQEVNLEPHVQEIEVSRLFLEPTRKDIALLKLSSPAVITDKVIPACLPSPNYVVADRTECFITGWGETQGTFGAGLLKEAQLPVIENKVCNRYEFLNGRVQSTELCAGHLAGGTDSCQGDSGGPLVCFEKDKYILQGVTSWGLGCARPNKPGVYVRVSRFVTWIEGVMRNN
Sequence of plasmin (P00747 97-580 partner limits assumed): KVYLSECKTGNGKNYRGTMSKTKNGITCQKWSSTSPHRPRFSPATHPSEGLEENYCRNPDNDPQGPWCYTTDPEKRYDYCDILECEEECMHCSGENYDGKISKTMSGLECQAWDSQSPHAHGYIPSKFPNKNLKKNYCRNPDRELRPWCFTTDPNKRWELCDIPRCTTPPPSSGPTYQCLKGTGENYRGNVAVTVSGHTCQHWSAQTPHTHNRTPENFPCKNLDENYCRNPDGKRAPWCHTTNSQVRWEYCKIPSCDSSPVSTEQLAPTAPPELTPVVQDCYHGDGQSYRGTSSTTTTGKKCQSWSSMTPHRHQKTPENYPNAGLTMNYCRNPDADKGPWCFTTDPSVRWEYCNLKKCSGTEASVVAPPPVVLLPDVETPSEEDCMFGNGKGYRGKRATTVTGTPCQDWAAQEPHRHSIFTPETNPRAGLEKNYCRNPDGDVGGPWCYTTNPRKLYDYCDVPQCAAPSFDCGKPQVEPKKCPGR
Sequence of Factor Xa (P00742 235-488 limits assumed): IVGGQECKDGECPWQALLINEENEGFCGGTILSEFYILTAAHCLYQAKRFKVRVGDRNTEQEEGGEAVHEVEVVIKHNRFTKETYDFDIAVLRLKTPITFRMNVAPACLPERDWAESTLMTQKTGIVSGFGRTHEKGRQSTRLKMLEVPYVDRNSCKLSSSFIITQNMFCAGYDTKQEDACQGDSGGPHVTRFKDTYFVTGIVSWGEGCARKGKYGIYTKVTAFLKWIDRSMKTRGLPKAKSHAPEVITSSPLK
Sequence of Factor Xa (P00742 41-179 partner limits assumed): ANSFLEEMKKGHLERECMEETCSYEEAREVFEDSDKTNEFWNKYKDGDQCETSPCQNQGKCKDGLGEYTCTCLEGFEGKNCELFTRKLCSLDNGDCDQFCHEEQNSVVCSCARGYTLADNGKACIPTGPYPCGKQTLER

CC(C)C[C@H](NC(=O)OC1CCN(C(=O)OC(C)(C)C)CC1)C(=O)N[C@@H](C[C@@H]1CCNC1=O)C(O)S(=O)(=O)[O-].[Na+] (some centres unmarked) [GC868]
No or minimal inhibition: inhibition of α-chymotrypsin [1] | inhibition of plasmin [2] | inhibition of trypsin [3] | inhibition of Factor Xa [4] | inhibition of thrombin [5]
